This test in a line: Inhibition of human amyloid beta (1 to 42) in human SKNBE2 cells expressing wild-type amyloid precursor protein hAPP695 incubated for 18 hrs by sandwich ELISA.
Turning to `C[C@@]1(c2cc(NC(=O)c3ccc(C#N)cn3)ccc2F)Cn2c(C#N)cnc2C(N)=N1`, the IC50 (as a rule, the concentration needed to halve the response being measured) worked out at 3.3 nM.

Regarding `Cc1nc(C(=O)Nc2ccc(F)c([C@]3(C)Cn4nc(C#N)cc4C(N)=N3)c2)co1`, the IC50 was found to be 4.8 nM.

Consider `COc1cnc(C(=O)Nc2ccc(F)c([C@]3(C)Cn4nc(C#N)cc4C(N)=N3)c2)cn1`, for which the IC50 turned out to be 1.3 nM. This IC50 is about 3.7-fold lower than that of the molecule before.

`C[C@@]1(c2cc(NC(=O)c3ccc(C#N)cn3)ccc2F)Cn2cc(C#N)nc2C(N)=N1` registered an IC50 of 8.5 nM.

In turn, `C[C@@]1(c2cc(NC(=O)c3ccc(F)cn3)ccc2F)Cn2c(C#N)cnc2C(N)=N1` gave an IC50 of 13 nM.

Molecule `C[C@@]1(c2cc(NC(=O)c3ccc(Cl)cn3)ccc2F)Cn2c(C#N)cnc2C(N)=N1` displayed a concentration for half-maximal inhibition (IC50) of 3.6 nM.

As for `COc1cnc(C(=O)Nc2ccc(F)c([C@]3(C)Cn4c(C#N)cnc4C(N)=N3)c2)cn1`, the IC50 was determined as 6.3 nM.

For `C[C@@]1(c2cc(NC(=O)c3ccc(C#N)cn3)ccc2F)Cn2nc(C#N)cc2C(N)=N1`, inhibition was half-maximal at 1 nM (IC50). This IC50 is about 6.3-fold lower than that of the molecule before.

Molecule `C[C@@]1(c2cc(NC(=O)c3ccc(F)cn3)ccc2F)Cn2nc(C#N)cc2C(N)=N1` displayed an IC50 of 2.6 nM. Against the preceding molecule, the IC50 is about 2.6-fold higher.

For `C[C@@]1(c2cc(NC(=O)c3ccc(OC(F)F)cn3)ccc2F)Cn2nc(C#N)cc2C(N)=N1`, the IC50 amounted to 1 nM.

Regarding `C[C@@]1(c2cc(NC(=O)c3cnc(C(F)F)cn3)ccc2F)Cn2nc(C#N)cc2C(N)=N1`, the IC50 is 2.5 nM.

The molecule `C[C@@]1(c2cc(NC(=O)c3cnc(OCF)cn3)ccc2F)Cn2nc(C#N)cc2C(N)=N1` showed an IC50 of 1.2 nM.

Values taken from BindingDB's records for doi:10.1021/acsmedchemlett.1c00445 (Janssen Research & Development, 2022).
